Experimental data reported in the NIST ThermoML archive (doi:10.1016/j.fluid.2014.12.027).
Numbers after ± are expanded uncertainties.

Conditions: 298 K; 101.33 kPa; Liquid; Vibrating tube method

## CCCCCCCCCC [decane]
  mass density: 722.439 ± 0.28 kg/m3

## OCCOCCO [diethylene glycol]
  mass density: 1109.16 ± 0.34 kg/m3

## Cc1ccccc1 [toluene]
  mass density: 857.606 ± 0.19 kg/m3

## OCCOCCOCCO [triethylene glycol]
  mass density: 1116.05 ± 0.34 kg/m3
